Where a name gives a salt, the structure may show the parent alone. Each block holds one compound with its values, some of them ahead of it.
Tests used:
[1] = Hygroscopicity: water absorption at 80% RH for 24 hours at RT, e.g. by TGA; format: physicochemical; conditions: 'non-hygroscopic' as defined in b56: less than 0.2% (w/w) absorption of water at 80% RH for 24 hours at RT
Experimental: As used herein the term non-hygroscopic in relation to crystalline Branaplam and salts thereof refers to less than 0.2% (w/w) absorption of water by the crystalline Branaplam, when exposed to 80% relative humidity (“RH”) for 24 hours at room temperature (“RT”), as determined, for example, by TGA.

[2] = Solid state (polymorphic) stability of crystalline forms on storage, humidity, heat, pressure or grinding; format: physicochemical; conditions: for stability (conversion to any other solid state form): 'stable' as defined in b57: less than 20% conversion at 60% RH/RT or 75% RH/40° C. for at least 1 month, or at 80-100% RH 7 days, 100° C. 30 minutes, 3 Ton 1 minute, strong grinding
Experimental: As used herein the term “stable” in relation to crystalline Branaplam and salts thereof refers to less than 20%, less than 10%, less than 5%, less than 2%, less than 1%, or less than 0.5% conversion of crystalline Branaplam and salts thereof to any other solid state form of Branaplam when kept in storage for long term stability e.g. 60% RH/RT or 75% RH/40° C. for at least 1 month. Alternatively, crystalline Branaplam and salts thereof are stable when exposed to high humidity e.g. 80-100% RH for 7 days, high temperature e.g. 100° C. for 30 minutes, high mass pressure e.g. 3 Ton for 1 minute or upon strong grinding.

hygroscopicity [1]: non-hygroscopic | stability (conversion to any other solid state form) ([2]; hydrochloride): surprisingly stable
Structure (SMILES): CC1(C)CC(Oc2ccc(-c3ccc(-c4cn[nH]c4)cc3O)nn2)CC(C)(C)N1 [Branaplam hydrochloride Form C1, Branaplam hydrochloride]

stability upon heating and humidity ([2]; heating and humidity, b57 gives e.g. 100° C. for 30 minutes, 80-100% RH for 7 days): stable upon heating and humidity
Structure (SMILES): CC1(C)CC(Oc2ccc(-c3ccc(-c4cn[nH]c4)cc3O)nn2)CC(C)(C)N1 [Branaplam hydrochloride Form C3, Branaplam hydrochloride]

stability (conversion to any other solid state form) [2]: stable
Structure (SMILES): CC1(C)CC(Oc2ccc(-c3ccc(-c4cn[nH]c4)cc3O)nn2)CC(C)(C)N1 [Branaplam Form B1, Branaplam]
